According to ChEMBL document CHEMBL4706479, “Novel Aryloxyethyl Derivatives of 1-(1-Benzoylpiperidin-4-yl)methanamine as the Extracellular Regulated Kinases 1/2 (ERK1/2) Phosphorylation-Preferring Serotonin 5-HT Receptor-Biased Agonists with Robust Antidepressant-like Activity” (J Med Chem, 2019):
≈ marks a conversion by molar mass, not a printed value.

Experiments:
[1] = molecular target: T1, 5-hydroxytryptamine receptor 1A (Homo sapiens) (UniProt P08908); assay: Biased agonist activity at human recombinant 5-HT1A receptor stably expressed in CHO-K1 cells assessed as inhibition of forskolin-induced cAMP accumulation after 40 mins by LANCE Ultra cAMP kit-based TR-FRET assay relative to serotonin; format: functional, cell-based
T1 sequence (whole entry): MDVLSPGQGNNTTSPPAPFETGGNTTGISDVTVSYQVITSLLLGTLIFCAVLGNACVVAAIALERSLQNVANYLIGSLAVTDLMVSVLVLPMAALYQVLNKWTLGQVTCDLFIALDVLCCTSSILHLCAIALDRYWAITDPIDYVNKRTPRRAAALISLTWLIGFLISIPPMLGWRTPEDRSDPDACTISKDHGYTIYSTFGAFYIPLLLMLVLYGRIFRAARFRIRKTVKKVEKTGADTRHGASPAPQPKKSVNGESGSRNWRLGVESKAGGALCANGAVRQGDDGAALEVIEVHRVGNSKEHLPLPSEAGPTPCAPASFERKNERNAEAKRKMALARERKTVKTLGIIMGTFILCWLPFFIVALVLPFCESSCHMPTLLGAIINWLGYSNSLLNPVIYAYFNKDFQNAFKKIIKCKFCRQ

[2] = molecular target: T1, 5-hydroxytryptamine receptor 1A (Homo sapiens); assay: Biased agonist activity at Gal4-VP16 transcription factor linked human 5-HT1A receptor expressed in human U2OS cells assessed as stimulation of beta-arrestin recruitment measured after 5 hrs by Tango assay relative to serotonin; format: cell-based
[3] = molecular target: T1, 5-hydroxytryptamine receptor 1A (Homo sapiens); assay: Biased agonist activity at human recombinant 5-HT1A receptor stably expressed in CHO-K1 cells assessed as increase in calcium mobilization measured at 2 sec intervals for 180 secs by Fluo-4AM dye based fluorescence assay relative to serotonin; format: functional, cell-based; settings: time 180.0 sec
D(2) dopamine receptor = D(2) dopamine receptor (Homo sapiens, UniProt P14416); assay: Displacement of [3H]-methylspiperone from recombinant human D2 receptor stably expressed in CHO-K1 cell membranes measured after 60 mins by microbeta2 scintillation counting method; set-up: species or system Cell membrane
[4] = molecular target: T2, 5-hydroxytryptamine receptor 1A (Homo sapiens, UniProt P08908); assay: Displacement of [3H]8-OH-DPAT from recombinant human 5HT1A receptor stably expressed in CHO-K1 cell membranes measured after 60 mins by microbeta2 scintillation counting method; set-up: species or system Cell membrane
T2 sequence (P08908 whole entry): T1 sequence (whole entry)

[5] = molecular target: T2, 5-hydroxytryptamine receptor 1A; assay: Biased agonist activity at human recombinant 5-HT1A receptor stably expressed in CHO-K1 cells assessed as increase in ERK1/2 phosphorylation levels incubated for 15 mins by Alphalisa assay; format: cell-based
[6] = molecular target: T2, 5-hydroxytryptamine receptor 1A; assay: Biased agonist activity at human recombinant 5-HT1A receptor stably expressed in CHO-K1 cells assessed as inhibition of forskolin-induced cAMP accumulation after 40 mins by LANCE Ultra cAMP kit-based TR-FRET assay; format: functional, cell-based
[7] = molecular target: T2, 5-hydroxytryptamine receptor 1A; assay: Biased agonist activity at human recombinant 5-HT1A receptor stably expressed in CHO-K1 cells assessed as increase in calcium mobilization measured at 2 sec intervals for 180 secs by Fluo-4AM dye based fluorescence assay; format: functional, cell-based
Rattus norvegicus [8] = assay: Antidepressant-like activity in Wistar rat assessed as minimum effective dose causing reduction in immobility time after oral administration with compound 60 mins prior to testing and measured for 5 mins test period by Porsolt-forced swim test; format: functional; settings: 1.083 h, time 65 min, read-out: MED
Rattus norvegicus [9] = assay: Antidepressant-like activity in Wistar rat assessed as maximum effective dose causing reduction in immobility time after oral administration with compound 60 mins prior to testing and measured for 5 mins test period by Porsolt-forced swim test; format: functional; settings: time 65 min; 1.083 h
[10] = Aqueous solubility of compound in pH 7.4 PBS buffer at 200 uM; format: physicochemical
[11] = molecular target: T1, 5-hydroxytryptamine receptor 1A (Homo sapiens); assay: Bias factor, ratio of biased agonist activity at human recombinant 5-HT1A receptor stably expressed in CHO-K1 cells assessed as increase in ERK1/2 phosphorylation levels to biased agonist activity at human recombinant 5-HT1A receptor stably expressed in CHO-K1 cells assessed as inhibition of forskolin-induced cAMP accumulation; format: functional, cell-based
[12] = molecular target: T1, 5-hydroxytryptamine receptor 1A (Homo sapiens); assay: Biased agonist activity at human recombinant 5-HT1A receptor stably expressed in CHO-K1 cells assessed as increase in ERK1/2 phosphorylation levels incubated for 15 mins by Alphalisa assay relative to serotonin; format: cell-based
[13] = molecular target: T1, 5-hydroxytryptamine receptor 1A (Homo sapiens); assay: Bias factor, ratio of biased agonist activity at human recombinant 5-HT1A receptor stably expressed in CHO-K1 cells assessed as increase in ERK1/2 phosphorylation levels to biased agonist activity at Gal4-VP16 transcription factor linked human 5-HT1A receptor expressed in human U2OS cells assessed as stimulation of beta-arrestin recruitment; format: cell-based
[14] = molecular target: T1, 5-hydroxytryptamine receptor 1A (Homo sapiens); assay: Bias factor, ratio of biased agonist activity at human recombinant 5-HT1A receptor stably expressed in CHO-K1 cells assessed as inhibition of forskolin-induced cAMP accumulation to biased agonist activity at Gal4-VP16 transcription factor linked human 5-HT1A receptor expressed in human U2OS cells assessed as stimulation of beta-arrestin recruitment; format: functional, cell-based
Rattus norvegicus [15] = assay: Antidepressant-like activity in Wistar rat assessed as minimum effective dose causing reduction in immobility time administered intraperitoneally with compound 60 mins prior to testing and measured for 5 mins test period by Porsolt-forced swim test; format: functional; settings: ip, 1.083 h, time 65 min, read-out: MED
Rattus norvegicus [16] = assay: Antidepressant-like activity in Wistar rat assessed as reduction in immobility time at 15 mg/kg, ip administered 60 mins prior to testing and measured for 5 mins test period by Porsolt-forced swim test; format: functional; set-up: scale not given: the % may be the effect or the level left; settings: time 65 min, 1.083 h
[17] = molecular target: T3, Adrenergic receptor alpha-1 (Rattus norvegicus, UniProt P15823+P23944+P43140); assay: Displacement of [3H]-prazosin from alpha1 adrenergic receptor in rat cortex measured after 30 mins by microbeta2 scintillation counting method; format: tissue-based
T3 sequence (P15823 whole entry): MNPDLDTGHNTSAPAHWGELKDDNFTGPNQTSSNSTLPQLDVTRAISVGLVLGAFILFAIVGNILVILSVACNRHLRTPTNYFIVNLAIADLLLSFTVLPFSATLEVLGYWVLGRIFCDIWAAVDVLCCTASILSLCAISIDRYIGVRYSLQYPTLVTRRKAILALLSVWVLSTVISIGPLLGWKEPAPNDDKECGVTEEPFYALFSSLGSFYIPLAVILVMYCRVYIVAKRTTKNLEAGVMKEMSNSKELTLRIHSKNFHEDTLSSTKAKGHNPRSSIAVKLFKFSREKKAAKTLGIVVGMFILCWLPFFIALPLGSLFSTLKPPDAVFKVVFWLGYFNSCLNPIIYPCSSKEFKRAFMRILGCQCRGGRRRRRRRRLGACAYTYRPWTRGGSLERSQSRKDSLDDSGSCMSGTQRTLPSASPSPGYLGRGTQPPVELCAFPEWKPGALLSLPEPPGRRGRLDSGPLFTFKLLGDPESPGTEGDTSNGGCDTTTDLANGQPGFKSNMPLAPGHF
T3 sequence (P23944 whole entry): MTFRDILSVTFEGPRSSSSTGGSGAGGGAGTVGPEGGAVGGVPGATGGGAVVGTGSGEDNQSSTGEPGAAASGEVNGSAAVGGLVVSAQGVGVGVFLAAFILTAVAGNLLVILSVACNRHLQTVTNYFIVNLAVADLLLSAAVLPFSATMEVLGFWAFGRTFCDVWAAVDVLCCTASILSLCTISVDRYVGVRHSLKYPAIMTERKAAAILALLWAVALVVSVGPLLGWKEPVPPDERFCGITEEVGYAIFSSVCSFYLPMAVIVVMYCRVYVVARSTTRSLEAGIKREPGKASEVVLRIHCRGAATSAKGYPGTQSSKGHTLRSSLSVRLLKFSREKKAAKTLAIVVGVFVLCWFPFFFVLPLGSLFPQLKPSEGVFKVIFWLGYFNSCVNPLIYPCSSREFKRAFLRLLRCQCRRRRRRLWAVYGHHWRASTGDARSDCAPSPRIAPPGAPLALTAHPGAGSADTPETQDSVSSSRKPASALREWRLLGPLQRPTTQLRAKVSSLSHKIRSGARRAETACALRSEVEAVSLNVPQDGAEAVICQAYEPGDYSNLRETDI
T3 sequence (P43140 whole entry): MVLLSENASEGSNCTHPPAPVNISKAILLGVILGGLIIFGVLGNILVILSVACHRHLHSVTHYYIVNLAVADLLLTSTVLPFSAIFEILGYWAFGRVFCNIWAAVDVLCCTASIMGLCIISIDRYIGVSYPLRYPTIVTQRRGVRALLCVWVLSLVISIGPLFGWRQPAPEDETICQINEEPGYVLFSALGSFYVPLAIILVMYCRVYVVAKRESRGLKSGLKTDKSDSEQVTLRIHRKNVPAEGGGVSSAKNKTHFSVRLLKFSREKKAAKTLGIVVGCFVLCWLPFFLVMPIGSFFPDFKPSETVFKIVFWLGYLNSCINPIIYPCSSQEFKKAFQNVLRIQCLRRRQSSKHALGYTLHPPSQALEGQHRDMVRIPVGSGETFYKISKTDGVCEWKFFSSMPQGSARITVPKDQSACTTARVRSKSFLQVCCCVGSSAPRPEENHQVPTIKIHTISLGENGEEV

[18] = Permeability of compound across basolateral to apical side in human Caco-2 cells at pH 7.4; format: ADME, cell-based; settings: Caco-2, pH 7.4, read-out: permeability
in vitro = settings: human, liver microsomes
Rattus norvegicus [19] = assay: Antidepressant-like activity in Wistar rat assessed as reduction in immobility time at 10 mg/kg, ip administered 60 mins prior to testing and measured for 5 mins test period by Porsolt-forced swim test; format: functional; set-up: scale not given: the % may be the effect or the level left; settings: time 65 min, 1.083 h

Sequence of D(2) dopamine receptor (P14416 whole entry): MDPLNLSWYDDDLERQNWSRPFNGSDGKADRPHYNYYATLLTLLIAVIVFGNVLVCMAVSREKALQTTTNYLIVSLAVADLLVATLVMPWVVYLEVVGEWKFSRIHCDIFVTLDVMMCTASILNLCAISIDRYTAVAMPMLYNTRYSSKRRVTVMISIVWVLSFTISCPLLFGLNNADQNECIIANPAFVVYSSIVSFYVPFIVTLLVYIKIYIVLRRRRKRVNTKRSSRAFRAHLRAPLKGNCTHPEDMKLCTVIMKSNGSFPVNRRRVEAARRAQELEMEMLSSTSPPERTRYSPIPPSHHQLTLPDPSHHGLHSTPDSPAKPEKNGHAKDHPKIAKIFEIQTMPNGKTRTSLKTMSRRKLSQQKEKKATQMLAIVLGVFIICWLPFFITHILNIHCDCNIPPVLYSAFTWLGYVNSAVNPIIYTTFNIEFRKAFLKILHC

SMILES | Emax ([1]; filed as agonist) | Emax ([2]; filed as agonist) | Ki (D(2) dopamine receptor) | Ki [4] | Emax ([12]; filed as agonist) | pKi [17] | other results
O=C(c1ccc(F)c(Cl)c1)N1CCC(F)(CNCCNc2ccccn2)CC1 | 86% | 99% |  |  |  |  | Emax ([3]; filed as partial agonist): 52%
Cc1cnc(CNCC2(F)CCN(C(=O)c3ccc(F)c(Cl)c3)CC2)nc1 |  |  | > 1000 nM | 2.19 nM |  |  | EC50 [5]: 4.68 nM; EC50 [6]: 60.3 nM; EC50 [7]: 245 nM; minimal effective dose (Rattus norvegicus [8]): 0.63 mg/kg; ED (Rattus norvegicus [9]): 5 mg/kg
COCCc1ccc(OCC(O)CNC(C)C)cc1 (centres undefined) [METOPROLOL] |  |  |  |  |  |  | solubility at 200 µM [10]: 181 µM (≈ 48.3 µg/mL)
O=C(c1ccc(F)c(Cl)c1)N1CCC(F)(CNCCSc2ccccc2)CC1 |  |  | > 1000 nM | 0.562 nM |  |  | Ratio [11]: 1.27; Emax ([12]; filed as partial agonist): 85%; EC50 [5]: 170 nM; Emax ([1]; filed as partial agonist): 71%; EC50 [6]: 2450 nM; Emax ([2]; filed as partial agonist): 70%; Ratio [13]: 0.82; Ratio [14]: -0.45
O=C(c1ccc(Cl)c(Cl)c1)N1CCC(F)(CNCCOc2ccccn2)CC1 | 71% | 99% |  |  | 85% |  | Emax ([3]; filed as partial agonist): 58%
CNC1(c2ccccc2Cl)CCCCC1=O (centres undefined) [KETAMINE] |  |  |  |  |  |  | minimal effective dose (Rattus norvegicus [15]): 5 mg/kg; Activity (Rattus norvegicus [16]): 43%
O=C(c1ccc(F)c(Cl)c1)N1CCC(F)(CNCCOc2ccnnc2)CC1 |  |  | > 1000 nM | 200 nM |  | < 6 | 
O=C(c1ccc(F)c(Cl)c1)N1CCC(F)(CNCCCc2ccccn2)CC1 |  | 101% |  |  |  |  | Emax ([1]; filed as partial agonist): 74%; Emax ([3]; filed as agonist): 87%
Cc1cnc(OCCNCC2(F)CCN(C(=O)c3ccc(F)c(Cl)c3)CC2)nc1 |  |  |  |  |  | < 6 | Emax ([12]; filed as partial agonist): 72%; Emax ([1]; filed as partial agonist): 41%; Emax ([2]; filed as partial agonist): 75%
O=C(c1ccc(F)c(Cl)c1)N1CCC(F)(CNCCCc2ccccc2)CC1 | 91% | 99% |  |  | 77% | < 6 | Emax ([3]; filed as partial agonist): 74%
O=C(c1ccc(F)c(Cl)c1)N1CCC(F)(CNCCOc2cncnc2)CC1 |  |  | > 1000 nM | 209 nM |  | < 6 | 
O=C(c1ccc(F)c(Cl)c1)N1CCC(F)(CNCCOc2ncccn2)CC1 |  |  |  |  |  | < 6 | 
O=C(c1ccc(F)c(Cl)c1)N1CCC(F)(CNCCNc2ccccc2)CC1 | 79% | 104% |  |  | 81% | < 6 | Emax ([3]; filed as partial agonist): 65%
O=C(c1ccc(F)c(Cl)c1)N1CCC(F)(CNCCOc2cccnc2)CC1 | 100% | 101% |  |  | 99% | < 6 | Emax ([3]; filed as agonist): 98%
O=C(c1ccc(F)c(Cl)c1)N1CCC(F)(CNCCOc2ccncc2)CC1 |  |  | > 1000 nM | 389 nM |  | < 6 | 
O=C(c1ccc(F)c(Cl)c1)N1CCC(F)(CNCCOc2cnccn2)CC1 | 90% | 97% |  |  | 100% | < 6 | Emax ([3]; filed as agonist): 89%
CC(C)NCC(O)COc1cccc2ccccc12 (centres undefined) [PROPRANOLOL] |  |  |  |  |  |  | Papp B→A [18]: 27.4 ×10⁻⁶ cm/s; half-life at 0.1 µM (in vitro): > 1 h
CN(C)CCCN1c2ccccc2CCc2ccccc21 [IMIPRAMINE] |  |  |  |  |  |  | minimal effective dose (Rattus norvegicus [15]): 10 mg/kg; Activity (Rattus norvegicus [19]): 25%
O=C(c1ccc(F)c(Cl)c1)N1CCC(F)(CNCCSc2ccccn2)CC1 | 76% | 102% |  |  | 84% |  | Emax ([3]; filed as partial agonist): 73%
O=C(c1ccc(Cl)c(Cl)c1)N1CCC(F)(CNCCOc2ccccc2)CC1 |  |  | > 1000 nM | 0.0148 nM |  |  | 
